Measured values as given in paper doi:10.1101/2022.06.11.495772v2 (biorxiv, 2022).
Square brackets hold non-standard residues; d marks the D form. Peptide text beside a SMILES is read from it. NMeY = CN[C@@H](Cc1ccc(O)cc1)C(=O)O; NMeT = CN[C@H](C(=O)O)[C@@H](C)O; NMeL = CN[C@@H](CC(C)C)C(=O)O

Assays:
HsMetAP1 = HsMetAP1 (Homo sapiens, UniProt P53582); assay: biochemical
HsMetAP2 = HsMetAP2 (Homo sapiens, UniProt P50579); assay: biochemical
EcMetAP [1] = molecular target: T1, EcMetAP (Escherichia coli, UniProt P0AE18); assay: biochemical
T1 sequence (P0AE18 2-264): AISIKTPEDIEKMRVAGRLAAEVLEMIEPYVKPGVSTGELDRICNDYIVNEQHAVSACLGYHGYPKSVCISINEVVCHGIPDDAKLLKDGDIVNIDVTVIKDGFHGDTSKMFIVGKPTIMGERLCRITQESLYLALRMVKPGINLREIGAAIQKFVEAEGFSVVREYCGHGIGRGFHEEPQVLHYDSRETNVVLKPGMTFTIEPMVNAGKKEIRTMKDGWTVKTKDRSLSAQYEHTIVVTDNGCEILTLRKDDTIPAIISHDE

EcMetAP [2] = molecular target: T1, EcMetAP; assay: coupled fluorogenic Met-Gly-Pro-AMC / DPPIV assay; format: biochemical

Chain of HsMetAP2 (P50579 2-478): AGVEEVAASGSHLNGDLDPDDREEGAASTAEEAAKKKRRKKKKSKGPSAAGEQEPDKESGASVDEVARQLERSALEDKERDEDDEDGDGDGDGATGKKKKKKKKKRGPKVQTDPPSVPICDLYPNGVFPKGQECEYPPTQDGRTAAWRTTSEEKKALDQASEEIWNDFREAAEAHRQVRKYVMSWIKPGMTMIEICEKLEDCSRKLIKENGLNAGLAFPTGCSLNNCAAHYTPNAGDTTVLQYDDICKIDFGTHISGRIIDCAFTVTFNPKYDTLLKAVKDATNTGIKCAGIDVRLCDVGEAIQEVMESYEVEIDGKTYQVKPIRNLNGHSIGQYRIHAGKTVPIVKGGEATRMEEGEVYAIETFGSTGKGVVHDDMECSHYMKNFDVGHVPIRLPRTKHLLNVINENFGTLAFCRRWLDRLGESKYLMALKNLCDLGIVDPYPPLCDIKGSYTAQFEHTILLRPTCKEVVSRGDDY

Structure (SMILES) | IC50 (HsMetAP1) | IC50 (HsMetAP2) | IC50 (EcMetAP [1]) | IC50 (EcMetAP [2])
CC(C)CC1C(=O)OC(C)C(N(C)C(=O)C(Cc2ccc(O)cc2)N(C)C)C(=O)N(C)C(CC(C)C)C(=O)OC(C)C(N(C)C(=O)C(Cc2ccc(O)cc2)N(C)C)C(=O)N1C (stereo not shown) [metapeptin A] | > 2 mM | > 2 mM | > 2 mM | –
CNC(Cc1ccc(O)cc1)C(=O)N(C)C1C(=O)N(C)C(CC(C)C)C(=O)OC(C)C(N(C)C(=O)C(Cc2ccc(O)cc2)N(C)C)C(=O)N(C)C(CC(C)C)C(=O)OC1C (stereo not shown) [metapeptin B] | 0.0497 ± 0.00398 mM | > 2 mM | 0.00047 ± 0.00029 mM | ~0.0005 mM
CN[C@@H](Cc1ccc(O)cc1)C(=O)N(C)[C@H](C(=O)N(C)[C@@H](CC(C)C)C(=O)OC)[C@@H](C)OC [NMe-Monomer] (H-[NMeY]-[NMeT](Me)-[NMeL]-OMe) | > 2 mM | > 2 mM | – | –
CO[C@@H]1[C@H](OC(=O)NC(=O)CCl)CC[C@]2(CO2)[C@H]1[C@@]1(C)O[C@@H]1CC=C(C)C [TNP-470] | > 2 mM | 0.00069 ± 5e-05 mM | > 2 mM | –
CCCCCCCCCCCCCC(=O)O[C@H]1CC[C@H](NC(=O)[C@H](OC)[C@H](O)[C@@H](O)[C@H](O)/C=C/C(C)C)C(=O)N(C)C1 [bengamide B] | – | – | > 2 mM | –
